This is an account of results in PubChem BioAssay AID1508612.

This data set is described as follows: passive permeability, PAMPA, ADME assay (AID 1508612). Particulars: pH 7.4, 30.0 min, 50.0 µM.
For `FC(F)(F)c1cc(-c2ccc(CNc3nc(-c4ccccc4C(F)(F)F)nc4ccsc34)cc2)ccn1`, the apparent permeability coefficient (Papp) (in general, a coefficient for how fast a substance crosses the barrier) was 4550 nm/s.
As to `Cn1cc(Nc2cnccc2C(=O)O)c2cccnc21`, the Papp is 32 nm/s.
In turn, `NC(=O)C1CCN(c2nc(-c3cccc(N)c3)cs2)CC1` showed a Papp of 868 nm/s.
Turning to `O=C(Nc1nc(-c2ccccn2)cs1)c1cccc(-n2cnnn2)c1`, the Papp came out at 2900 nm/s.
Consider `Cc1cccc(C)c1C(=O)Nc1cccc([S+](=O)([O-])N(C)C)c1`, for which the Papp stood at 3550 nm/s.
To `c1ccc(-c2nc(N3CCCCCC3)c3ccccc3n2)nc1` belongs more than 10000 nm/s.
As for `COc1ccc(-c2noc([C@@H]3Cc4nc[nH]c4CN3C(=O)NC3CCCCC3)n2)cc1`, the Papp was 5170 nm/s.
To `Cn1c(CN2CCCC2)nc2cc(NC(=O)COc3ccc(Cl)cc3)ccc21` belongs more than 10000 nm/s; to `Cc1ccc(NC(=O)c2cc(-c3ccc(C)o3)nc3ccccc23)nc1`, more than 10000 nm/s.
Take `Cc1ccnc(NC(=S)N2CCC(c3cccc(C(F)(F)F)c3)CC2)c1`: the Papp worked out at 6720 nm/s.
Turning to `CC(=O)c1c(C)[nH]c(C(=O)Nc2ccc(Cl)cc2)c1C`, the Papp is 3640 nm/s.
For the compound `COc1ccccc1-c1cc2c(ccn2C)c(C(=O)NCC2CCN(C)C(=O)C2)n1` (configuration not stated), the Papp was determined as 3170 nm/s.
To `CN(Cc1cnc2nc(N)nc(N)c2n1)c1ccc(C(=O)N[C@@H](CCC(=O)O)C(=O)O)cc1` belongs 53.9 nm/s.
For the compound `Cc1ccc(S(=O)(=O)Nc2cnccc2C(=O)Nc2nc(-c3ccccc3Cl)cs2)cc1`, the Papp amounted to 460 nm/s.
`CC(C)(C)c1ccc(-n2cnc3cc(C(=O)N4CCCCC4)ccc32)cc1` registered a Papp of 9690 nm/s.
For `Cn1nnnc1Sc1ncnc2scc(-c3ccccc3F)c12`, the Papp came to 3380 nm/s.
`O=S(=O)(Nc1nccs1)c1ccc(NCc2cccc(Cl)c2O)cc1` registered a Papp of 184 nm/s.
As to `CCCCCn1c(CCCNC(=O)c2ccccc2OC)nc2ccccc21`, the Papp is more than 10000 nm/s.
`Cc1noc(/C=C/c2ccccc2F)c1S(=O)(=O)N1CCC(C(=O)Nc2ccc(C#N)cc2)CC1` came in with a Papp of 85.8 nm/s.
Compound `NC(=O)COc1cccc(C2CC(=O)Nc3nc(N4CCCCC4)sc32)c1` (configuration not stated) registered a Papp of 158 nm/s.
To `Cc1ccccc1C(=O)N1CCc2cc(-c3ccnc(NC(=O)Cc4ccccc4)n3)ccc21` belongs more than 10000 nm/s; to `NC(=O)NCC(=O)N[C@H]1CC[C@H](Nc2nccc(-c3ccncc3)n2)C1`, less than 10 nm/s.
To `CCOc1ccc(CCNC(=O)c2cc3ncccc3n2Cc2cccc(C)n2)cc1OCC` belongs 4910 nm/s.
In the case of `N#Cc1ccccc1Nc1ncc(-c2cccc3ccccc23)o1`, the Papp turned out to be 3790 nm/s.
For `Cc1ccnc(NC(=S)N2CCN(c3cccc(C(F)(F)F)c3)CC2)c1`, the Papp is more than 10000 nm/s.
To `CCCCN1CCC[C@H]1CNC(=O)c1cc(C#N)c2ccccc2c1OC` belongs more than 10000 nm/s; to `C=CCc1ccc(O)c(-c2ccc(O)c(CC=C)c2)c1`, more than 10000 nm/s; to `COc1ccc(Nc2nnc(-c3ccc(C)c(S(=O)(=O)NCc4nc5ccccc5[nH]4)c3)c3ccccc23)cc1`, 119 nm/s.
To `CC(=O)c1c(C)[nH]c(C(=O)Nc2cccc([S+](=O)([O-])Nc3ccncc3)c2)c1C` belongs 15.1 nm/s.
To `COc1cccc(CC(=O)Nc2nc(-c3ccc4c(c3)CCN4C(=O)c3ccccc3C)c(C)s2)c1` belongs 6740 nm/s.
Compound `O=C(Nc1ncc(Cc2ccc(C(F)(F)F)cc2)s1)c1cnc(-c2ccccc2)[nH]1` came in with a Papp of less than 10 nm/s.
`CS(=O)(=O)CCNCc1ccc(-c2ccc3ncnc(Nc4ccc(OCc5cccc(F)c5)c(Cl)c4)c3c2)o1` gave a Papp of less than 10 nm/s.
Turning to `CCc1cccc(C)c1Nc1c(-c2ccc(N(C)C)cc2)nc2ncccn12`, the Papp was more than 10000 nm/s.
For the compound `O=C(Cc1ccc(Cl)c(Cl)c1)Nc1ccc([S+](=O)([O-])Nc2ccccn2)cc1`, the Papp stood at 6510 nm/s.
To `COc1cccc(CNc2ccc(S(=O)(=O)Nc3nccs3)cc2)c1` belongs 3420 nm/s; to `CC(C=CC(=O)NO)=C[C@@H](C)C(=O)c1ccc(N(C)C)cc1`, 3350 nm/s; to `CN(C)c1cc(-c2nc(Nc3ccc(F)c(F)c3)c3ccccc3n2)ccn1`, more than 10000 nm/s.
For the compound `O=C1CCCC2=C1C(c1[nH]ncc1Cl)N=C(Nc1nc3cccc(Cl)c3o1)N2` (configuration not stated), the apparent permeability coefficient (Papp) is more than 10000 nm/s.
`COc1oc(-c2cccc3ccccc23)nc1C(=O)O` returned a Papp of 14.4 nm/s.
To `N#Cc1nc(-c2cccc3ccccc23)oc1NC1COC1` belongs more than 10000 nm/s.
With `O=S(=O)(Nc1nccs1)c1ccc(NCc2cc(F)ccc2O)cc1`, the Papp is 82.3 nm/s.
With `Cc1ccc(-n2nc3c(=O)n(CCCC(=O)NCc4ccc(F)cc4)nc(C)c3c2C)cc1`, the Papp came out at 8420 nm/s.
On to `CCC(C)N(C)C(=O)c1cc2ccccc2c(-c2ccccc2Cl)n1` (configuration not stated), for which the Papp was more than 10000 nm/s.
For the compound `N[C@@H](Cc1cc(Br)c(O)c(Br)c1)C(=O)O`, the Papp amounted to 36.4 nm/s.
On to `CCn1nc(C2CCN(C(=O)CCO)CC2)nc1-c1cnc(N)c(-c2nnc(C(C)(C)C)o2)n1`, for which the Papp was 1880 nm/s.
`COc1cccc(CNc2ccc(S(=O)(=O)Nc3nc4ccccc4o3)cc2)c1O` yielded a Papp of 1060 nm/s.
Turning to `O=C(NC1CC1)c1ccc(CSCc2ccccc2Cl)o1`, the apparent permeability (Papp) came out at 7580 nm/s.
To `COc1ccc(-n2nc(C3CCCN(C(=O)c4cccc(OC)c4)C3)[nH]c2=O)cc1` (configuration not stated) belongs 4360 nm/s; to `Nc1c(S(=O)(=O)c2cccs2)c2nc3ccccc3nc2n1Cc1ccccc1`, more than 10000 nm/s; to `Cc1ccc(CN2C(=O)C(O)(CC(=O)c3ccc(C)cc3)c3ccccc32)cc1` (configuration not stated), 8020 nm/s.
On to `CCOc1cc(=O)n2c(c1C(=O)Nc1cc(OC)c(Cl)cc1OC)CCCC2`, for which the Papp amounted to 966 nm/s.
Consider `Cc1nn2c(c1-c1ccccc1-c1ccccc1)N(CCC(C)C)CCC2`, for which the Papp came to 5320 nm/s.
To `N#Cc1cnccc1-c1nc(Nc2ccc(F)c(F)c2)c2ccccc2n1` belongs 2690 nm/s; to `CCOc1ccc(CCNC(=O)c2cc3ccccc3n2Cc2cccc(C)n2)cc1OCC`, more than 10000 nm/s.
To `CCOc1ccc(OCC)c(NC(=O)C(NS(=O)(=O)c2ccc(Br)s2)c2ccccc2)c1` (configuration not stated) belongs 11 nm/s; to `Cc1cc(C)nc(NC(=S)N2CCN(c3ccc(Cl)cc3[N+](=O)[O-])CC2)c1`, more than 10000 nm/s.
`Cn1ccc2cc(-c3csc(N4CCC(C(N)=O)CC4)n3)ccc21`: the Papp was 8230 nm/s.
As for `Cc1noc(-c2cn(C3CCN(C(=O)c4ccc(OC(F)(F)F)cc4)CC3)nn2)n1`, the Papp came out at 102 nm/s.
To `O=C(c1ccco1)N1CCN(c2nc(-c3ccc(Br)cc3)cs2)CC1` belongs 40.9 nm/s; to `COc1ccccc1Nc1cnc2ccc(-c3ccc(OC)c(OC)c3)nn12`, 3970 nm/s.
For `COC(=O)C1=C(C)NC(C)=C(C(=O)OCCCN2CCC(c3ccccc3)(c3ccccc3)CC2)C1c1cccc([N+](=O)[O-])c1` (configuration not stated), the Papp worked out at 341 nm/s.
Take `Fc1cnc(-c2ccccc2C(F)F)nc1NCC1CCN(c2cnccn2)CC1`: the Papp was more than 10000 nm/s.
To `COc1ccc(-c2ccc3ncc4c(c3c2)n(-c2ccc(N3CCNCC3)c(C(F)(F)F)c2)c(=O)n4C)cn1` belongs less than 10 nm/s; to `CCOc1ccc(NC(=O)c2nc(S(=O)(=O)Cc3ccccc3F)ncc2Cl)cc1`, 8820 nm/s; to `COc1ccc(NC(=O)c2c(C)c(C(C)=O)c(C)n2C)cc1S(=O)(=O)Nc1ccc(Br)cc1`, less than 10 nm/s.
With `O=C1NCc2ccc(-c3cc4c(ccn4Cc4cccnc4)c(C4=CCOCC4)n3)cc21`, the Papp was found to be 1750 nm/s.
The compound `CCn1c(C)c(C(C)=O)c(C)c1C(=O)Nc1cccc([S+](=O)([O-])N(C)C)c1` registered a Papp of 4050 nm/s.
In the case of `CNC1(c2ccccc2Cl)CCCCC1=O` (configuration not stated), the apparent permeability coefficient (Papp) was more than 10000 nm/s.
To `CC(C)C[C@H]1C(=O)N2CCC[C@H]2[C@]2(O)O[C@](NC(=O)[C@@H]3C=C4c5cccc6[nH]c(Br)c(c56)C[C@H]4N(C)C3)(C(C)C)C(=O)N12` belongs 8760 nm/s; to `CC(C)(C)C1CCc2c(sc(NC(=O)c3ccncc3)c2C(N)=O)C1` (configuration not stated), 5810 nm/s.
For the compound `Cc1ccc(-c2cc(C(=O)NCc3ccc(S(N)(=O)=O)cc3)c3ccccc3n2)cc1C`, the Papp is 710 nm/s.
To `Nc1c(C(=O)N2CCCCC2)sc(=S)n1-c1ccccc1` belongs more than 10000 nm/s; to `C#CCNC(=O)c1nc(-c2cccnc2)c2ccccn12`, 5070 nm/s.
In turn, `O=C(O)c1ccnc(-c2cc(C(=O)NCCc3ccccc3)ccn2)c1` had a Papp of less than 10 nm/s.
For the compound `OCCn1cc(-c2cnc3nnn(Cc4ccc5ncccc5c4)c3n2)cn1`, the apparent permeability coefficient (Papp) amounted to 975 nm/s.
Regarding `O=C(Nc1nc(-c2ccccc2)cs1)c1ccncc1NS(=O)(=O)c1ccc(C(F)(F)F)cc1`, the Papp stood at 3160 nm/s.
Regarding `NC(CO)(CO)CCc1ccc(Sc2cccc(OCc3ccccc3)c2)cc1Cl`, the Papp was 2100 nm/s.
With `Cc1ccc(-c2cc(C(=O)NCc3cnn(C)c3)c3cc(Br)ccc3n2)cc1`, the Papp is 242 nm/s.
In the case of `CN(C)c1ccc2cc(C(=O)N[C@@H](CCCN=C(N)CCl)C(=O)NCc3ccccc3)ccc2c1`, the Papp was less than 10 nm/s.
As to `O=C1CCC(CNC(=O)c2nc(-c3ccccc3)cc3[nH]ccc23)N1` (configuration not stated), the apparent permeability coefficient (Papp) was 1230 nm/s.
As for `Cc1ccc(S(=O)(=O)Nc2cnccc2C(=O)Nc2nc3ccccc3s2)cc1`, the Papp came out at 4750 nm/s.
With `CCN1CCc2c(sc(NC(=O)Nc3ccc(Cl)c(Cl)c3)c2C(N)=O)C1`, the Papp worked out at 4350 nm/s.
In turn, `Cc1ccc(S(=O)(=O)Nc2ccncc2C(=O)Nc2nc(-c3ccccc3)cs2)cc1` returned a Papp of less than 10 nm/s.
Turning to `CCOC(=O)N1CCN(Cc2nc3cc(NC(=O)CC(C)C)ccc3n2C(C)C)CC1`, the Papp was 6130 nm/s.
To `Cc1nc(-c2ccccc2)cc([C@H]2CN3CC[C@H]2C[C@@H]3CNC2CCOCC2)n1` belongs 3690 nm/s.
To `Cc1cc(C)c(C(=O)Nc2cccc([S+](=O)([O-])Nc3ccc(Br)cc3)c2)[nH]1` belongs 7370 nm/s.
With `COC(=O)CNC(=O)c1nc(-c2ccc(Cl)nc2)c2cnccn12`, the Papp was 1030 nm/s.
To `N[C@H]1CN(c2c(F)cc3c(=O)c(C(=O)O)cn(C4C[C@@H]4F)c3c2Cl)CC12CC2` (some centres not stated) belongs less than 10 nm/s; to `Oc1ccc(CNc2ccccc2F)c2cccnc12`, 340 nm/s; to `O=C(NC1CCCc2c1cnn2-c1cccc(O)c1)c1ccccn1` (configuration not stated), 8360 nm/s.
With `O=C(Cc1ccc(O)cc1)N1CC(CNc2ccccc2)C2(C1)CN(c1ccccc1)C2` (configuration not stated), the Papp was found to be 1970 nm/s.
To `Cc1ccnc(NC(=S)N2CC[C@@H](Nc3cccc(C(F)(F)F)c3)C2)c1` belongs more than 10000 nm/s.
